From ChEMBL document CHEMBL1255319, “Predictive values of the human immunodeficiency virus phenotype and genotype and of amprenavir and lopinavir inhibitory quotients in heavily pretreated patients on a ritonavir-boosted dual-protease-inhibitor regimen” (Antimicrob Agents Chemother, 2008)
≈ marks a conversion by molar mass, not a printed value.

Assays:
[1] = Inhibitory quotient, ratio of Cmin to IC90 for HIV1 infected in patient in presence of human serum at 600 mg, BID
Homo sapiens = species: Homo sapiens; experiment: fCmin in HIV1-infected patient at 600 mg, BID measured on week 2 by HPLC; conditions: in vivo
[2] = tested on: Human immunodeficiency virus 1; experiment: Antiviral activity against HIV1 infected in human; assay type: functional
[3] = tested on: Human immunodeficiency virus; experiment: Antiviral activity in HIV infected in patient having Cmin-corrected GIQ value < 75 assessed as viral copies; assay type: functional
[4] = tested on: Human immunodeficiency virus 1; experiment: Antiviral activity against HIV1 infected in human in presence of human serum; assay type: functional
[5] = tested on: Human immunodeficiency virus; experiment: Antiviral activity in HIV infected in patient having Cmin-corrected GIQ value > 75 assessed as viral copies; assay type: functional
[6] = Inhibitory quotient, ratio of fCmin to IC90 for HIV1 infected in patient at 600 mg, BID

## CC(C)CN(C[C@@H](O)[C@H](Cc1ccccc1)NC(=O)O[C@H]1CCOC1)S(=O)(=O)c1ccc(N)cc1 [AMPRENAVIR]
[1]
  Ratio: 3.6
Homo sapiens
  fCmin: 177 ng/mL
[2]
  IC90: 0.0578 µg/mL (≈ 0.114 µM)
[3]
  log10cfu: 0.19 log10 copies/ml
[4]
  IC90: 0.453 µg/mL
[5]
  log10cfu: 1.23 log10 copies/ml
[6]
  Ratio: 2.5
